# Reference: article PMC3706088 (Journal of medicinal chemistry, 2013)
# Entries after “also recorded” stand apart in the source; their conditions may differ. Read-outs that look alike come from different tables or passages of the source.
# Key:
# [1] = tested on: Female Sprague-Dawley rats; assay: Antinociception: tail-flick procedure in rats over 6 h after injection; conditions: rat, up to doses of 10.0 mg/kg s.c.
# [2] = biological target: CB1-E cannabinoid receptors (Homo sapiens, UniProt P21554); assay: β-arrestin2 translocation assay, U2OS cells expressing CB1-E and β-arrestin2-GFP; conditions: for β-arrestin2 translocation efficacy, 95% confidence interval: normalized to the response of WIN55212-2 set to 1, N = 3; for in vitro functional characterization, CB1 profile: conclusion of the in vitro functional assays
# [3] = tested on: Female Sprague-Dawley rats; assay: Hypothermia: body temperature in rats over 6 h after injection; conditions: rat, up to a dose of 10.0 mg/kg s.c.
# rCB1 [4] = biological target: T1, rCB1 (Rattus norvegicus, UniProt P20272); assay type: cell-based; conditions: for functional profile in cAMP assay: CB1
# mCB2 = mCB2 (Mus musculus, UniProt P47936); assay: Radioligand competition binding with [3H]CP-55,940, mouse spleen membranes; conditions: from Ki values
# hCB2 = hCB2 (Homo sapiens, UniProt P34972); assay type: binding; conditions: from Ki values
# rCB1 [5] = biological target: T1, rCB1; assay: Radioligand competition binding with [3H]CP-55,940, rat brain membranes; conditions: relative to 11; across rCB1, mCB2 and hCB2
# T1 sequence (P20272 whole entry): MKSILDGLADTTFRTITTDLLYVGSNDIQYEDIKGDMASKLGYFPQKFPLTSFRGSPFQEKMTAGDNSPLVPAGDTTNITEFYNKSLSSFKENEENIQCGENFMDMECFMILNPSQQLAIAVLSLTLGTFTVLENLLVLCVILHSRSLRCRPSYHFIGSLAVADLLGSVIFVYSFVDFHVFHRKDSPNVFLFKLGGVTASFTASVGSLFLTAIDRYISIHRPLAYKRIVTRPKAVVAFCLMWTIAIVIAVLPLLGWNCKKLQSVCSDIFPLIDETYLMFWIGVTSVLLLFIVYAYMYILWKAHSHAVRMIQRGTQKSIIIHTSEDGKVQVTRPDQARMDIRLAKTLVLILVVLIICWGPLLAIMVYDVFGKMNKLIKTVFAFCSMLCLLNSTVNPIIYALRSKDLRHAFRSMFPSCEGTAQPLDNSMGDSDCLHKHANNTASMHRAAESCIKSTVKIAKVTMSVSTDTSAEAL
# Chain of CB1-E cannabinoid receptors (P21554 1-415): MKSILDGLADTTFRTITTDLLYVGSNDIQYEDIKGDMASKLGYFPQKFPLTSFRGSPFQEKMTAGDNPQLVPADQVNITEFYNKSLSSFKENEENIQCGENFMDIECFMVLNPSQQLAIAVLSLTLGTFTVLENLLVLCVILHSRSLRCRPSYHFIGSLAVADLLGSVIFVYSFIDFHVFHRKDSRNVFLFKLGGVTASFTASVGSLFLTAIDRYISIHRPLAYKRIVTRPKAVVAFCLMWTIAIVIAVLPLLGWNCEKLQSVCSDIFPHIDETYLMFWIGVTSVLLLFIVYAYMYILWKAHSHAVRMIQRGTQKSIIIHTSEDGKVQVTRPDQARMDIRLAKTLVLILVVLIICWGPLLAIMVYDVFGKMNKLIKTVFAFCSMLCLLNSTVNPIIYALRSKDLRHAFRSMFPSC
# Chain of CB1-E cannabinoid receptors (P25103 309-407 partner): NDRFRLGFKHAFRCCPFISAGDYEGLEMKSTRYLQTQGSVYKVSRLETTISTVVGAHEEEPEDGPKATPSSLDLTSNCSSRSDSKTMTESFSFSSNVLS
# Chain of mCB2 (P47936 whole entry): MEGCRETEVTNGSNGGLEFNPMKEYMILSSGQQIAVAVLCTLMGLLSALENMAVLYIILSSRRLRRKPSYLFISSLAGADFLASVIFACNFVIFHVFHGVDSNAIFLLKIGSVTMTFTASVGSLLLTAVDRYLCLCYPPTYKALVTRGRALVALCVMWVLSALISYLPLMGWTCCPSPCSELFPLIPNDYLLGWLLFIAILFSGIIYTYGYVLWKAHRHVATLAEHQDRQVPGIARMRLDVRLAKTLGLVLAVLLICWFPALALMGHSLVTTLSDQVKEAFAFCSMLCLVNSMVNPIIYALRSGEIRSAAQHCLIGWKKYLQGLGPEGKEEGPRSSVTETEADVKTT
# Chain of hCB2 (P34972 whole entry): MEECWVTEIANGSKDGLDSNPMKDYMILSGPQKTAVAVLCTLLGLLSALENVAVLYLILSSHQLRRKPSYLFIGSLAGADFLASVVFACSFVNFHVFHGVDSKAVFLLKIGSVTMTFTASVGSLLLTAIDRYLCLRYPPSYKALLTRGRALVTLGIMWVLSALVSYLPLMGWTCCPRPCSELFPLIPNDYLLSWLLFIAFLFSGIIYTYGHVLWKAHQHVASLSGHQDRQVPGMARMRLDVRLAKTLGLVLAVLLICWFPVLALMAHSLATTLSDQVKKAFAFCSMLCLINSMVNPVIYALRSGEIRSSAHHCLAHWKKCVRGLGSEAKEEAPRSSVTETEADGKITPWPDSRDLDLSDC
Compound,antinociceptive effects (tail-flick) [1],"β-arrestin2 translocation efficacy, 95% confidence interval [2]",EC50 (rCB1 [4]),functional profile in cAMP assay (rCB1 [4]),"in vitro functional characterization, CB1 profile [2]",CB1 selectivity over mCB2 (mCB2),further results
CC1=CC[C@@H]2[C@@H](C1)c1c(O)cc(C34CC5CC(CC(C5)C3)C4)cc1OC2(C)C [Compound 1],neither had significant antinociceptive effects,0.43–0.81,,,,,hypothermic effects [3]: did not have hypothermic effects
"CC1(C)Oc2cc(C34CC5CC(CC(C5)C3)C4)cc(O)c2[C@@H]2C[C@H](CO)CC[C@H]21 [Compound 11, (6aR,9R,10aR)-3-(Adamantan-1-yl)-9-(hydroxymethyl)-6,6-dimethyl-6a,7,8,9,10,10a-hexahydro-6H-benzo[c]chromen-1-ol]",,0.65–0.92,1.29 nM,potent CB1 agonist,high efficacy CB1 agonists,,functional profile in cAMP assay (rCB1 [4]; listed as AM4054): agonist
"CC1(C)Oc2cc(C34CC5CC(CC(C5)C3)C4)cc(O)c2[C@@H]2C[C@H](CCO)CC[C@H]21 [Compound 16, (6aR,9R,10aR)-3-(Adamantan-1-yl)-9-(2-hydroxyethyl)-6,6-dimethyl-6a,7,8,9,10,10a-hexahydro-6H-benzo[c]chromen-1-ol]",,,,,,~ 4 fold,CB1 selectivity over hCB2 (hCB2): ~ 4 fold
"CC1(C)Oc2cc(C34CC5CC(CC(C5)C3)C4)cc(O)c2[C@@H]2C[C@@H](CO)CC[C@H]21 [Compound 17, (6aR,9S,10aR)-3-(Adamantan-1-yl)-9-(hydroxymethyl)-6,6-dimethyl-6a,7,8,9,10,10a-hexahydro-6H-benzo[c]chromen-1-ol]",,,,,,,lower affinities than β-hydroxymethyl isomer 11 (rCB1 [5]): 6- to 11 fold
"CC1(C)Oc2cc(C34CC5CC(CC(C5)C3)C4)cc(O)c2[C@@H]2CC(CO)=CC[C@H]21 [Compound 22, (6aR,10aR)-3-(Adamantan-1-yl)-9-(hydroxymethyl)-6,6-dimethyl-6a, 7, 10, 10a-tetrahydro-6H-benzo[c]chromen-1-ol]",,0.54–0.80,,,high efficacy CB1 agonists,,
CC1(C)Oc2cc(C34CC5CC(CC(C5)C3)C4)cc(O)c2-c2cc(CO)ccc21 [Compound 24],neither had significant antinociceptive effects,0.68–0.94,7.97 nM,CB1 partial agonist; also recorded: partial CB1 agonist,,15 fold,functional profile in cAMP assay (rCB1 [4]; listed as AM4089): partial agonist
